Data as given in patent US20080260716A1, “Method and Composition for High Level Disinfection Employing Quaternary Ammonium Compounds” (priority 2004, published 2008).
Read-outs that look alike come from different tables or passages of the source.

Key:
[1] = tested on: Mycobacterium terrae, B. subtilis, C. sporogens; design: key: satisfies the FDA requirement for high level disinfection (“HLD”); fails to do so (“F”)
C. sporogens spores = assay: AOAC sporicidal test, kill time; format: cell-based; details: for C. sporogens (no kill): 48 hrs
B. subtilis spores = assay: AOAC sporicidal test, kill time; format: cell-based; details: for B. subtilis (no kill): 48 hrs
[2] = Table 3 Prior art, 0.25% QUAT, 25° C.
[3] = Table 6 unnumbered test, 2% QUAT + 0.2% Protease (Savinase 16 L), 25° C. + 1% borax
[4] = test 3.4, 0.25% QUAT, 62° C. + ultrasound
[5] = test 4.1, 2% QUAT, 25° C. + 1% borax
[6] = test 4.2, 5% QUAT, 25° C. + 1% borax
[7] = test 4.3, 1% QUAT, 40° C. + 1% borax
[8] = test 4.4, 2% QUAT, 40° C. + 1% borax
[9] = test 4.5, 5% QUAT, 40° C. + 1% borax
[10] = test 4.6, 2% QUAT, 50° C. + 1% borax
[11] = test 4.7, 5% QUAT, 50° C. + 1% borax
[12] = test 5.2, 2% QUAT, 40° C. + ultrasound 10 min each hour
[13] = test 5.3, 5% QUAT, 40° C. + ultrasound 10 min each hour
[14] = test 5.4, 1% QUAT, 40° C. + ultrasound 10 min each hour
[15] = test 5.5, 2% QUAT + 1% borax, 40° C. + ultrasound 10 min each hour
[16] = test 5.6, 5% QUAT + 1% borax, 40° C. + ultrasound 10 min each hour
[17] = test 5.7, 2% QUAT + 1% borax + Protease, 40° C. + ultrasound 10 min each hour
[18] = test 6.1, 2% QUAT + 0.2% Protease (Savinase 16 L), 25° C.
[19] = test 6.2, 2% QUAT + 0.2% Protease (Savinase 16 L), 40° C.
[20] = test 6.3, 2% QUAT + 0.2% Protease (Savinase 16 L), 40° C. + 1% borax
[21] = test 6.4, 2% QUAT + 0.2% Protease (Savinase 16 L), 50° C.
[22] = test 6.5, 2% QUAT + 0.2% Protease (Savinase 16 L), 50° C. + 1% borax
[23] = test 6.6, 2% QUAT + 0.2% Protease (Savinase 16 L), 40° C. + ultrasound 10 min each hour + 1% borax
[24] = test 6.7, 2% QUAT + 1% borax + Protease, 40° C. + ultrasound 10 min each hour
[25] = test 2.7, 5.0% QUAT, 50° C., listed as quat
[26] = test 2.8, 1.0% QUAT, 80° C., listed as quat
[27] = test 5.1, 1% QUAT, 40° C. + ultrasound 10 min each hour

## benzalkonium chloride [QUAT]
[1]; [2]
  HLD Or F: F
[1]; [3]
  HLD Or F: F
[1]; test 1.1, 0.025% QUAT, 25° C.
  HLD or F: F
[1]; test 1.2, 0.25% QUAT, 25° C.
  HLD or F: F
[1]; test 2.1, 5% QUAT, 30° C.
  HLD or F: HLD
[1]; test 2.2, 1.0% QUAT, 40° C.
  HLD or F: HLD
[1]; test 2.3, 2.0% QUAT, 40° C.
  HLD or F: HLD
[1]; test 2.4, 5.0% QUAT, 40° C.
  HLD or F: HLD
[1]; test 2.5, 1.0% QUAT, 50° C.
  HLD or F: HLD
[1]; test 2.6, 2.0% QUAT, 50° C.
  HLD or F: HLD
[1]; test 2.7, 5.0% QUAT, 50° C.
  HLD or F: HLD
[1]; test 2.8, 1.0% QUAT, 80° C.
  HLD or F: HLD
[1]; test 3.1, 0.25% QUAT, 40° C.
  HLD Or F: F
[1]; test 3.2, 0.25% QUAT, 50° C.
  HLD Or F: F
[1]; test 3.3, 0.25% QUAT, 60° C.
  HLD Or F: F
[1]; [4]
  HLD Or F: F
[1]; test 3.5, 1.0% QUAT, 25° C.
  HLD Or F: F
[1]; test 3.6, 2.0% QUAT, 25° C.
  HLD Or F: F
[1]; test 3.7, 5.0% QUAT, 25° C.
  HLD Or F: F
[1]; test 3.8, 0.6%, 40° C.
  HLD Or F: F
[1]; test 3.9, 0.6% QUAT, 50° C.
  HLD Or F: F
[1]; [5]
  HLD or F: F
[1]; [6]
  HLD or F: F
[1]; [7]
  HLD or F: HLD
[1]; [8]
  HLD or F: HLD
[1]; [9]
  HLD or F: HLD
[1]; [10]
  HLD or F: HLD
[1]; [11]
  HLD or F: HLD
[1]; [12]
  HLD Or F: HLD
[1]; [13]
  HLD Or F: HLD
[1]; [14]
  HLD Or F: HLD
[1]; [15]
  HLD Or F: HLD
[1]; [16]
  HLD Or F: HLD
[1]; [17]
  HLD Or F: HLD
[1]; [18]
  HLD Or F: F
[1]; [19]
  HLD Or F: HLD
[1]; [20]
  HLD Or F: HLD
[1]; [21]
  HLD Or F: HLD
[1]; [22]
  HLD Or F: HLD
[1]; [23]
  HLD Or F: HLD
[1]; [24]
  HLD Or F: HLD
C. sporogens spores; [2]
  Kill Time C. sporogens: >24 h
C. sporogens spores; [3]
  Kill Time C. sporogens: >48 h
  C. sporogens (no kill): (no kill) (“No kill” means less than 2 log reduction from the initial population)
C. sporogens spores; above 1% w/w of quat, 40° C.
  kill time of C. sporogenes: less than 2 hours
C. sporogens spores; test 1.1, 0.025% QUAT, 25° C.
  Kill Time C. sporogens: >24 h
C. sporogens spores; test 1.2, 0.25% QUAT, 25° C.
  Kill Time C. sporogens: >24 h
C. sporogens spores; test 2.1, 5% QUAT, 30° C.
  Kill Time C. sporogens: <2 h
C. sporogens spores; test 2.2, 1.0% QUAT, 40° C.
  Kill Time C. sporogens: <2 h
C. sporogens spores; test 2.3, 2.0% QUAT, 40° C.
  Kill Time C. sporogens: <2 h
C. sporogens spores; test 2.4, 5.0% QUAT, 40° C.
  Kill Time C. sporogens: <1 h
C. sporogens spores; test 2.5, 1.0% QUAT, 50° C.
  Kill Time C. sporogens: <2 h
C. sporogens spores; test 2.6, 2.0% QUAT, 50° C.
  Kill Time C. sporogens: <2 h
C. sporogens spores; test 2.7, 5.0% QUAT, 50° C.
  Kill Time C. sporogens: <1 h
C. sporogens spores; [25]
  Kill Time C. sporogens: less than one hour
C. sporogens spores; test 2.8, 1.0% QUAT, 80° C.
  Kill Time C. sporogens: <1 h
C. sporogens spores; [26]
  Kill Time C. sporogens: less than one hour
C. sporogens spores; test 3.1, 0.25% QUAT, 40° C.
  Kill Time C. sporogens: >24 h
C. sporogens spores; test 3.2, 0.25% QUAT, 50° C.
  Kill Time C. sporogens: >24 h
C. sporogens spores; test 3.3, 0.25% QUAT, 60° C.
  Kill Time C. sporogens: >24 h
C. sporogens spores; [4]
  Kill Time C. sporogens: >24 h
C. sporogens spores; test 3.5, 1.0% QUAT, 25° C.
  Kill Time C. sporogens: >48 h
  C. sporogens (no kill): (no kill) (“No kill” means less than 2 log reduction from the initial population)
C. sporogens spores; test 3.6, 2.0% QUAT, 25° C.
  Kill Time C. sporogens: >48 h
  C. sporogens (no kill): (no kill) (“No kill” means less than 2 log reduction from the initial population)
C. sporogens spores; test 3.7, 5.0% QUAT, 25° C.
  Kill Time C. sporogens: >48 h
  C. sporogens (no kill): (no kill) (“No kill” means less than 2 log reduction from the initial population)
C. sporogens spores; test 3.8, 0.6%, 40° C.
  Kill Time C. sporogens: >24 h
C. sporogens spores; test 3.9, 0.6% QUAT, 50° C.
  Kill Time C. sporogens: <16 h
C. sporogens spores; [5]
  Kill Time C. sporogens: >48 h
  C. sporogens (no kill): (no kill) (“No kill” means less than 2 log reduction from the initial population)
C. sporogens spores; [6]
  Kill Time C. sporogens: >48 h
  C. sporogens (no kill): (no kill) (“No kill” means less than 2 log reduction from the initial population)
C. sporogens spores; [7]
  Kill Time C. sporogens: <1 h
C. sporogens spores; [8]
  Kill Time C. sporogens: <1 h
C. sporogens spores; [9]
  Kill Time C. sporogens: <1 h
C. sporogens spores; [10]
  Kill Time C. sporogens: <1 h
C. sporogens spores; [11]
  Kill Time C. sporogens: <1 h
C. sporogens spores; [27]
  Kill Time C. sporogens: <2 h
C. sporogens spores; [12]
  Kill Time C. sporogens: <1 h
C. sporogens spores; [13]
  Kill Time C. sporogens: <1 h
C. sporogens spores; [14]
  Kill Time C. sporogens: <1 h
C. sporogens spores; [15]
  Kill Time C. sporogens: <1 h
C. sporogens spores; [16]
  Kill Time C. sporogens: <1 h
C. sporogens spores; [17]
  Kill Time C. sporogens: <1 h
C. sporogens spores; [18]
  Kill Time C. sporogens: >48 h
  C. sporogens (no kill): (no kill) (“No kill” means less than 2 log reduction from the initial population)
C. sporogens spores; [19]
  Kill Time C. sporogens: <1 h
C. sporogens spores; [20]
  Kill Time C. sporogens: <1 h
C. sporogens spores; [21]
  Kill Time C. sporogens: <1 h
C. sporogens spores; [22]
  Kill Time C. sporogens: <1 h
C. sporogens spores; [23]
  Kill Time C. sporogens: <1 h
C. sporogens spores; [24]
  Kill Time C. sporogens: <1 h
B. subtilis spores; [2]
  Kill Time B. subtilis: >24 h
B. subtilis spores; [3]
  Kill Time B. subtilis: >48 h
  B. subtilis (no kill): (no kill) (“No kill” means less than 2 log reduction from the initial population)
B. subtilis spores; above 1% w/w of quat, 40° C.
  kill time of B. subtilis: less than 2 hours
B. subtilis spores; test 1.1, 0.025% QUAT, 25° C.
  Kill Time B. subtilis: >24 h
B. subtilis spores; test 1.2, 0.25% QUAT, 25° C.
  Kill Time B. subtilis: >24 h
B. subtilis spores; test 2.1, 5% QUAT, 30° C.
  Kill Time B. subtilis: <2 h
B. subtilis spores; test 2.2, 1.0% QUAT, 40° C.
  Kill Time B. subtilis: <2 h
B. subtilis spores; test 2.3, 2.0% QUAT, 40° C.
  Kill Time B. subtilis: <2 h
B. subtilis spores; test 2.4, 5.0% QUAT, 40° C.
  Kill Time B. subtilis: <1 h
B. subtilis spores; test 2.5, 1.0% QUAT, 50° C.
  Kill Time B. subtilis: <1 h
B. subtilis spores; test 2.6, 2.0% QUAT, 50° C.
  Kill Time B. subtilis: <1 h
B. subtilis spores; test 2.7, 5.0% QUAT, 50° C.
  Kill Time B. subtilis: <1 h
B. subtilis spores; [25]
  Kill Time B. subtilis: less than one hour
B. subtilis spores; test 2.8, 1.0% QUAT, 80° C.
  Kill Time B. subtilis: <1 h
B. subtilis spores; [26]
  Kill Time B. subtilis: less than one hour
B. subtilis spores; test 3.1, 0.25% QUAT, 40° C.
  Kill Time B. subtilis: >24 h
B. subtilis spores; test 3.2, 0.25% QUAT, 50° C.
  Kill Time B. subtilis: >24 h
B. subtilis spores; test 3.3, 0.25% QUAT, 60° C.
  Kill Time B. subtilis: >24 h
B. subtilis spores; [4]
  Kill Time B. subtilis: >24 h
B. subtilis spores; test 3.5, 1.0% QUAT, 25° C.
  Kill Time B. subtilis: >48 h
  B. subtilis (no kill): (no kill) (“No kill” means less than 2 log reduction from the initial population)
B. subtilis spores; test 3.6, 2.0% QUAT, 25° C.
  Kill Time B. subtilis: >48 h
  B. subtilis (no kill): (no kill) (“No kill” means less than 2 log reduction from the initial population)
B. subtilis spores; test 3.7, 5.0% QUAT, 25° C.
  Kill Time B. subtilis: >48 h
  B. subtilis (no kill): (no kill) (“No kill” means less than 2 log reduction from the initial population)
B. subtilis spores; test 3.8, 0.6%, 40° C.
  Kill Time B. subtilis: >24 h
B. subtilis spores; test 3.9, 0.6% QUAT, 50° C.
  Kill Time B. subtilis: <16 h
B. subtilis spores; [5]
  Kill Time B. subtilis: >48 h
  B. subtilis (no kill): (no kill) (“No kill” means less than 2 log reduction from the initial population)
B. subtilis spores; [6]
  Kill Time B. subtilis: >48 h
  B. subtilis (no kill): (no kill) (“No kill” means less than 2 log reduction from the initial population)
B. subtilis spores; [7]
  Kill Time B. subtilis: <1 h
B. subtilis spores; [8]
  Kill Time B. subtilis: <1 h
B. subtilis spores; [9]
  Kill Time B. subtilis: <1 h
B. subtilis spores; [10]
  Kill Time B. subtilis: <1 h
B. subtilis spores; [11]
  Kill Time B. subtilis: <1 h
B. subtilis spores; [27]
  Kill Time B. subtilis: <2 h
B. subtilis spores; [12]
  Kill Time B. subtilis: <1 h
B. subtilis spores; [13]
  Kill Time B. subtilis: <1 h
B. subtilis spores; [14]
  Kill Time B. subtilis: <1 h
B. subtilis spores; [15]
  Kill Time B. subtilis: <1 h
B. subtilis spores; [16]
  Kill Time B. subtilis: <1 h
B. subtilis spores; [17]
  Kill Time B. subtilis: <1 h
B. subtilis spores; [18]
  Kill Time B. subtilis: >48 h
  B. subtilis (no kill): (no kill) (“No kill” means less than 2 log reduction from the initial population)
B. subtilis spores; [19]
  Kill Time B. subtilis: <2 h
B. subtilis spores; [20]
  Kill Time B. subtilis: <1 h
B. subtilis spores; [21]
  Kill Time B. subtilis: <1 h
B. subtilis spores; [22]
  Kill Time B. subtilis: <1 h
B. subtilis spores; [23]
  Kill Time B. subtilis: <1 h
B. subtilis spores; [24]
  Kill Time B. subtilis: <1 h
